Reference: patent US20240368173A1, “TRICYCLIC GPR65 MODULATORS” (PATHIOS THERAPEUTICS LIMITED, priority 2021, published 2024)
Read-outs that look alike come from different tables or passages of the source.

Target: human recombinant GPR65 (Homo sapiens, UniProt Q8IYL9)
Assay: Human GPR65 cAMP HTRF antagonist assay
Assay type: cell-based
Excerpt: In one preferred embodiment, the compound prevents the increase in cytoplasmic cAMP levels expected following GPR65 activation at acidic pH. This prevention of cAMP accumulation in turn prevents downstream signalling through ICER, as described above. The “Human GPR65 cyclic adenosine monophosphate (cAMP) Homogeneous Time Resolved Fluorescence (HTRF) antagonist assay”, or simply “cAMP assay”, as described in the accompanying examples, can be used to measure the potency of GPR65 modulators, which is expressed as the concentration of compound required to reduce the increase in cAMP concentration upon GPR65 activation by 50% (i.e. an IC50).
Human GPR65 Cyclic Adenosine Monophosphate (cAMP) Homogeneous Time Resolved Fluorescence (HTRF) Antagonist Assay Procedure
IC50 data was obtained by the following procedure:
1321N1 human astrocytoma cells stably expressing human recombinant GPR65 (1321N1-hrGPR65 cells, EuroscreenFast) were cultured according to the vendor's instructions.
Compounds were tested for their ability to antagonise GPR65, through measuring the concentration of cytoplasmic cAMP following treatment of the cells at a pH of 7.2 to activate GPR65 signalling and addition of the compound to be tested. The extent to which the expected rise in cAMP concentration upon GPR65 activation was suppressed by the added compound is indicative of its potency. The assay was carried out according to EuroscreenFast assay Methodology as follows.
On the day of the assay, test compounds were added to 384-well, low volume, white microtiter plates by acoustic dispensing. KRH buffer (5 mM KCl, 1.25 mM MgSO4, 124 mM NaCl, 25 mM HEPES, 13.3 mM Glucose, 1.25 mM KH2PO4 and 1.45 mM CaCl2) was adjusted to pH 6.5, pH 7.6 and pH 8.4 by adding NaOH. 1321N1-hGPR65 cells were rapidly thawed and diluted in KRH, pH 7.6 prior to centrifugation at 300×g for 5 min and resuspension in assay buffer (KRH, pH 7.6, supplemented with 1 mM 3-isobutyl-1-methylxanthine (IBMX) and 200 μM ethylenediaminetetraacetic acid (EDTA)). Cells were added to assay plates at a density of 2,000 cells per well in a volume of 5 μl. Assay plates were briefly centrifuged at 100×g and then incubated at room temperature for 30 min. Cells were stimulated by the addition of 5 μL KRH, pH 6.5, to achieve an assay pH of 7.2, while control wells received 5 μl KRH, pH 8.4 to achieve an assay pH of 7.9. Assay plates were briefly centrifuged at 100×g and then incubated at room temperature for 30 min.
Accumulation of cAMP was detected by cAMP HTRF kit (Cisbio). d2-labeled cAMP and cryptate-labeled anti-cAMP antibody in Lysis and Detection Buffer (Cisbio) were added to assay plates, and the plates were incubated at room temperature for 1 h. HTRF measurements were performed using a Pherastar FSX instrument. Acceptor and donor emission signals were measured at 665 nm and 620 nm, respectively, and HTRF ratios were calculated as signal665 nm/signal620 nm×10^4. Data were normalised to high and low control values and fitted with 4-parameter logistic regression to determine hGPR65 IC50 values for the test compounds, which are shown in Table 1.

[1] = 1321N1-hrGPR65 cells, cAMP HTRF, assay pH 7.2, read-out: hGPR65 IC50 (Activity of selected compounds according to the invention)

Chain of human recombinant GPR65 (Q8IYL9 whole entry): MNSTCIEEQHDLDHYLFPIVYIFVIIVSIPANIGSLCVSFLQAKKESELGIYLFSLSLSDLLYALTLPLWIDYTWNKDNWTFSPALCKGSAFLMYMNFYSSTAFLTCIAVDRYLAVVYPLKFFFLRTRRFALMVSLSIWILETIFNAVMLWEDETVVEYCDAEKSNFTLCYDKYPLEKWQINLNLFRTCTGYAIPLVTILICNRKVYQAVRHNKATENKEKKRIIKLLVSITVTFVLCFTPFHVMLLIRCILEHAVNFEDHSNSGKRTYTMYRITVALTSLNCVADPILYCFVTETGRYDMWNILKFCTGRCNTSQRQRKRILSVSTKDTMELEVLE

SMILES | IC50 [nM] | IC50 [1] [nM]
COc1ccc(-c2cc(F)c(NC(=O)N3[C@H]4CC[C@@H]3c3c[nH]c(=O)cc3C4)cc2Cl)cn1 [Compound 184, (6S,9R)-N-(5-Chloro-2-fluoro-4-(6-methoxypyridin-3-yl)phenyl)-3-oxo-3,5,6,7,8,9-hexahydro-2H-6,9-epiminocyclohepta[c]pyridine-10-carboxamide] | < 500 | –
CNCCOc1ccc(-c2cc(F)c(NC(=O)N3[C@H]4CC[C@@H]3c3ccnc(F)c3C4)cc2Cl)cn1 [Compound 300, (5R,8S)—N-(5-Chloro-2-fluoro-4-(6-(2-(methylamino)ethoxy)pyridin-3-yl)phenyl)-1-fluoro-6,7,8,9-tetrahydro-5H-5,8-epiminocyclohepta[c]pyridine-10-carboxamide] | – | 500 to 5000
O=C(Nc1cc(Cl)c(-c2ccc(OCC(F)(F)F)nc2)cc1F)N1[C@H]2CC[C@@H]1c1ccnc(F)c1C2 [Compound 240, (5R,8S)-N-(5-Chloro-2-fluoro-4-(6-(2,2,2-trifluoroethoxy)pyridin-3-yl)phenyl)-1-fluoro-6,7,8,9-tetrahydro-5H-5,8-epiminocyclohepta[c]pyridine-10-carboxamide] | < 500 | –
O=C(Nc1ccc2nsnc2c1)N1[C@H]2CC[C@@H]1c1n[nH]c(=O)cc1C2 [Compound 186, (6S,9R)—N-(benzo[c][1,2,5]thiadiazol-5-yl)-3-oxo-3,5,6,7,8,9-hexahydro-2H-6,9-epiminocyclohepta[c]pyridazine-10-carboxamide] | 500 to 5000 | –
O=C(Nc1cc(F)c(-c2ccc(C(F)(F)F)nc2)cc1F)N1[C@H]2CC[C@@H]1c1ccnc(F)c1C2 [Compound 223, (5R,8S)-N-(2,5-Difluoro-4-(6-(trifluoromethyl)pyridin-3-yl)phenyl)-1-fluoro-6,7,8,9-tetrahydro-5H-5,8-epiminocyclohepta[c]pyridine-10-carboxamide] | < 500 | –
NC(=O)c1ccc(-c2cc(F)c(NC(=O)N3[C@H]4CC[C@@H]3c3n[nH]c(=O)cc3C4)cc2Cl)cc1 [Compound 129, (6S,9R)-N-(4′-Carbamoyl-2-chloro-5-fluoro-[1,1′-biphenyl]-4-yl)-3-oxo-3,5,6,7,8,9-hexahydro-2H-6,9-epiminocyclohepta[c]pyridazine-10-carboxamide] | – | 500 to 5000
N#Cc1cc(NC(=O)N2C3CCC2c2n[nH]c(=O)cc2C3)ccc1C(F)(F)F (racemic) [Compound 11, (±)-N-(3-Cyano-4-(trifluoromethyl)phenyl)-3-oxo-3,5,6,7,8,9-hexahydro-2H-6,9-epiminocyclohepta[c]pyridazine-10-carboxamide] | < 500 | –
O=C(Nc1cc(Br)c(C(F)(F)F)cc1F)N1[C@@H]2CC[C@H]1c1n[nH]c(=O)cc1C2 [Compound 34, (6R,9S)-N-(5-Bromo-2-fluoro-4-(trifluoromethyl)phenyl)-3-oxo-3,5,6,7,8,9-hexahydro-2H-6,9-epiminocyclohepta[c]pyridazine-10-carboxamide] | – | > 5000
O=C(Nc1cc(Cl)c(F)cc1F)N1C2CCC1c1n[nH]c(=O)cc1C2 (racemic) [Compound 52, (±)-N-(5-Chloro-2,4-difluorophenyl)-3-oxo-3,5,6,7,8,9-hexahydro-2H-6,9-epiminocyclohepta[c]pyridazine-10-carboxamide] | < 500 | –
O=C(Nc1cc(Cl)c(OC2CCC2)cc1F)N1[C@H]2CC[C@@H]1c1ccnc(F)c1C2 [Compound 67, (5R,8S)-N-(5-Chloro-4-cyclobutoxy-2-fluorophenyl)-1-fluoro-6,7,8,9-tetrahydro-5H-5,8-epiminocyclohepta[c]pyridine-10-carboxamide] | < 500 | –
O=C(Nc1cc(Cl)c(-c2ccc3csnc3c2)cc1F)N1[C@H]2CC[C@@H]1c1n[nH]c(=O)cc1C2 [Compound 270, (6S,9R)-N-(4-(Benzo[c]isothiazol-6-yl)-5-chloro-2-fluorophenyl)-3-oxo-3,5,6,7,8,9-hexahydro-2H-6,9-epiminocyclohepta[c]pyridazine-10-carboxamide] | < 500 | –
O=C(Nc1cc(Cl)c(-c2cnn(CC3CC3)c2)cc1F)N1[C@H]2CC[C@@H]1c1n[nH]c(=O)cc1C2 [Compound 144, (6S,9R)-N-(5-Chloro-4-(1-(cyclopropylmethyl)-1H-pyrazol-4-yl)-2-fluorophenyl)-3-oxo-3,5,6,7,8,9-hexahydro-2H-6,9-epiminocyclohepta[c]pyridazine-10-carboxamide] | < 500 | –
O=C(Nc1cc(Cl)c(Cl)cc1F)N1[C@@H]2CC[C@H]1[C@@H](F)c1ccnc(F)c12 (racemic) [Compound 284, ±(5-endo)-N-(4,5-dichloro-2-fluorophenyl)-1,5-difluoro-6,7,8,9-tetrahydro-5H-6,9-epiminocyclohepta[c]pyridine-10-carboxamide] | – | 500 to 5000
O=C1COc2ccc(-c3cc(F)c(NC(=O)N4[C@H]5CC[C@@H]4c4n[nH]c(=O)cc4C5)cc3Cl)cc2N1 [Compound 146, (6S,9R)-N-(5-Chloro-2-fluoro-4-(3-oxo-3,4-dihydro-2H-benzo[b][1,4]oxazin-6-yl)phenyl)-3-oxo-3,5,6,7,8,9-hexahydro-2H-6,9-epiminocyclohepta[c]pyridazine-10-carboxamide] | – | 500 to 5000
O=C(Nc1cc(Cl)c(Cl)cc1F)N1C2CCC1c1ncc(=O)[nH]c1C2 (racemic) [Compound 158, (±)—N-(4,5-Dichloro-2-fluorophenyl)-2-oxo-2,5,6,7,8,9-hexahydro-1H-5,8-epiminocyclohepta[b]pyrazine-10-carboxamide] | – | > 5000
O=C(Nc1cc(Br)c(C(F)(F)F)cc1F)N1C2CCC1c1n[nH]c(=O)cc1C2 (racemic) [Compound 6, (±)-N-(5-Bromo-2-fluoro-4-(trifluoromethyl)phenyl)-3-oxo-3,5,6,7,8,9-hexahydro-2H-6,9-epiminocyclohepta[c]pyridazine-10-carboxamide] | < 500 | –
O=C(Nc1cc(Cl)c(-c2cc(F)cnc2F)cc1F)N1[C@H]2CC[C@@H]1c1ccnc(F)c1C2 [Compound 260, (5R,8S)-N-(5-Chloro-4-(2,5-difluoropyridin-3-yl)-2-fluorophenyl)-1-fluoro-6,7,8,9-tetrahydro-5H-5,8-epiminocyclohepta[c]pyridine-10-carboxamide] | < 500 | –
COc1ncc(-c2cc(F)c(NC(=O)N3[C@H]4CC[C@@H]3c3n[nH]c(=O)cc3C4)cc2Cl)cn1 [Compound 281, (6S,9R)-N-(5-Chloro-2-fluoro-4-(2-methoxypyrimidin-5-yl)phenyl)-3-oxo-3,5,6,7,8,9-hexahydro-2H-6,9-epiminocyclohepta[c]pyridazine-10-carboxamide] | < 500 | –
O=C(Nc1cc(C(F)(F)F)on1)N1[C@H]2CC[C@@H]1c1n[nH]c(=O)cc1C2 [Compound 110, (6S,9R)-3-Oxo-N-(5-(trifluoromethyl)isoxazol-3-yl)-3,5,6,7,8,9-hexahydro-2H-6,9-epiminocyclohepta[c]pyridazine-10-carboxamide] | < 500 | –
O=C(Nc1cc(Cl)c(C(F)(F)F)cc1F)N1C2CCC1C(F)(F)c1c2ccnc1F (racemic) [Compound 183, (±)—N-(5-Chloro-2-fluoro-4-(trifluoromethyl)phenyl)-1,9,9-trifluoro-6,7,8,9-tetrahydro-5H-5,8-epiminocyclohepta[c]pyridine-10-carboxamide] | < 500 | –
O=C(Nc1cc(Cl)c(C(F)(F)F)cc1F)N1C2CCC1c1n[nH]c(=O)cc1C2 (racemic) [Compound 1, (±)—N-(5-chloro-2-fluoro-4-(trifluoromethyl)phenyl)-3-oxo-3,5,6,7,8,9-hexahydro-2H-6,9-epiminocyclohepta[c]pyridazine-10-carboxamide] | < 500 | –
